Read-outs that look alike come from different tables or passages of the source.
Experiments:
Test in all cases: biochemical
Format in all cases: binding
Conditions in all cases: for Int (fluorescence emission): residual NPN fluorescence, normalized to 100 prior to ligand, screen at 2–20 μM ligand
CquiOBP1 = CquiOBP1 (Culex quinquefasciatus, UniProt Q8T6I2)
Experimental: (§1) Binding affinity (Ban et al., [2002]) was tested with a panel of 34 compounds, including attractants, a mosquito oviposition pheromone, repellents, terpenoids and other putative mosquito attractants or repellents. Unless otherwise specified, they were purchased from Sigma-Aldrich/Fluka/Acros (St. Louis, MO). Repellents: DEET (N,N-diethyl-3-methylbenzamide), PMD (p-mentan-3,8-diol) (Bedoukian Research, Inc.), picaridin (butan-2-yl 2-(2-hydroxyethyl)piperidine-1-carboxylate), IR3535 (ethyl 3-[acetyl(butyl)amino]propanoate) (gifts from Dr. Kamal Chauhan, USDA, ARS, Beltsville), (±)-citronellal, and ethyl 2-phenylacetate. Oviposition attractants: (5R,6S)-6-acetoxy-5-hexadecanolide, MOP (Bedoukian Research, Inc.), skatole, indole, 4-methylphenol, and 4-ethylphenol. Human derived compounds: nonanal, 6-methyl-5-hepten-2-one (sulcatone). Terpenoids and other putative attractants/repellents: linalool, linalool oxide, eucalyptol, camphor, fenchone, thujone, geranyl acetate, eugenol, (Z)-3-hexenyl acetate, 1-octen-3-ol, 1-octyn-3-ol, 3-octanol, 1-hexanol, methylcyclohexanol, methyl salicylate, cyclohexanone, acetophenone, benzaldehyde, 3,5-dimethoxybenzene, 1,2-dimethoxybenzene, and 2-phenylethanol.
(§2) Fluorescence spectra were recorded in a right angle configuration on a spectrofluorimeter (RF-5301, Shimadzu, Kyoto, Japan) at room temperature using a 1 cm light path fluorimeter quartz cuvette. Slit widths of 10 nm were selected for both excitation and emission. N-phenyl-1-naphthylamine (NPN, or 1-NPN) (Ban et al., [2002]) was dissolved in methanol to yield a 1 mM stock solution. The binding affinity for NPN was determined by adding aliquots of NPN into a 10 μg/ml (microgram) protein sample. NPN was excited at 337 nm and emission spectra were recorded at high speed scanning between 350 and 500 nm. All ligands used in competition experiments were dissolved in spectrophotometric grade methanol. Binding data were collected in three independent measurements. Bound ligand was evaluated from fluorescence intensity assuming that the protein was 100% active, with a stoichiometry of 1:1 (protein: ligand) at saturation. The KNPN values were estimated using Prism 5 (GraphPad Software, Inc., La Jolla, CA) by non-linear regression for a unique site of binding. The curves were linearized using Scatchard plots. Dissociation constants of the competitors were calculated according to Campanacci et al. ([2001]) from the corresponding IC50 values in the equation: Kdiss = [IC50]/1+[NPN]/KNPN, where [NPN] is the free concentration of NPN and KNPN is the dissociation constant of the complex protein/NPN.

CquiOBP2 = CquiOBP2 (Culex quinquefasciatus, UniProt C7BDZ6)
Experimental: as §1, §2

CquiOBP5 = CquiOBP5 (Culex quinquefasciatus, UniProt C7BDZ9)
Experimental: as §1, §2

[1] = CquiOBP1, NPN displacement titration, read-out: IC50
[2] = CquiOBP1, calculated from IC50 of NPN displacement, read-out: Kd
[3] = CquiOBP2, NPN displacement titration, read-out: IC50
[4] = CquiOBP2, calculated from IC50 of NPN displacement, read-out: Kd
[5] = CquiOBP5, NPN displacement titration, read-out: IC50
[6] = CquiOBP5, calculated from IC50 of NPN displacement, read-out: Kd

Chain of CquiOBP5 (C7BDZ9 entry or part of it): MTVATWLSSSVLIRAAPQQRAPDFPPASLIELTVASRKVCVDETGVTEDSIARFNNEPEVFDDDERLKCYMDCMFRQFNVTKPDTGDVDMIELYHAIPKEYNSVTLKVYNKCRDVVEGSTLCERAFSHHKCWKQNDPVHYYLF
Chain of CquiOBP1 (Q8T6I2 entry or part of it): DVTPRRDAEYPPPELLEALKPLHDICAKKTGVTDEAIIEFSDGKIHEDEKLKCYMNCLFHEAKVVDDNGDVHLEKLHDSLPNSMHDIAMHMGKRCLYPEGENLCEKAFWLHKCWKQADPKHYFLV
Chain of CquiOBP2 (C7BDZ6 entry or part of it): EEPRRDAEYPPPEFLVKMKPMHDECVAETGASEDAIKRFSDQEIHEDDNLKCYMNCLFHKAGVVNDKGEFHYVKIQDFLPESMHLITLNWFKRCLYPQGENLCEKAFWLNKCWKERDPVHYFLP

IC50 (CquiOBP1; [1]) | Kd (CquiOBP1; [2]) | Int (fluorescence emission) (CquiOBP1; CquiOBP1) | IC50 (CquiOBP2; [3]) | Kd (CquiOBP2; [4]) | Int (fluorescence emission) (CquiOBP2; CquiOBP2) | IC50 (CquiOBP5; [5]) | Kd (CquiOBP5; [6]) | Int (fluorescence emission) (CquiOBP5; CquiOBP5) | Compound | also measured
> 10 µM | > 6.3 µM | 71 | > 10 µM | > 2.5 µM | 90 | > 10 µM | > 7 µM | 67 | CCCCN(CCC(=O)OCC)C(C)=O [IR3535, ethyl 3-[acetyl(butyl)amino]propanoate] | 
> 10 µM | > 6.3 µM | 85 | > 10 µM | > 2.5 µM | 91 | > 10 µM | > 7 µM | 84 | CCc1ccc(O)cc1 [4-Ethylphenol, 4-ethylphenol] | 
 |  |  |  |  |  |  |  |  | c1ccc(Nc2cccc3ccccc23)cc1 [NPN, N-phenyl-1-naphthylamine] | Kd (CquiOBP1; direct titration of CquiOBP1 (10 μg/ml) with NPN, read-out: Kd for NPN): 1.71 ± 0.13 µM; Kd (CquiOBP2; direct titration of CquiOBP2 (10 μg/ml) with NPN, read-out: Kd for NPN): 0.5 ± 0.02 µM; Kd (CquiOBP5; direct titration of CquiOBP5 (10 μg/ml) with NPN, read-out: Kd for NPN): 2.3 ± 0.19 µM
> 10 µM | > 6.3 µM | 75 | 5.6 µM | 1.4 µM | 31 | 14.4 µM | 10.1 µM | 62 | Cc1c[nH]c2ccccc12 [Skatole, skatole] | binding to CquiOBP1 (in words) (CquiOBP1; in vitro, NPN displacement): does not bind; binding to CquiOBP2 (in words) (CquiOBP2; in vitro, NPN displacement): bind; binding to CquiOBP5 (in words) (CquiOBP5; in vitro, NPN displacement): bind
> 10 µM | > 6.3 µM | 96 | > 10 µM | > 2.5 µM | 90 | > 10 µM | > 7 µM | 73 | CC12CCC(CC1)C(C)(C)O2 [Eucalyptol, eucalyptol] | 
> 10 µM | > 6.3 µM | 79 | > 10 µM | > 2.5 µM | 93 | > 10 µM | > 7 µM | 83 | CC/C=C\CCOC(C)=O [(Z)-3-Hexenyl acetate, (Z)-3-hexenyl acetate] | 
> 10 µM | > 6.3 µM | 87 | > 10 µM | > 2.5 µM | 78 | > 10 µM | > 7 µM | 85 | CCCCCC(O)CC (stereo not drawn) [3-Octanol, 3-octanol] | 
> 10 µM | > 6.3 µM | 66 | > 10 µM | > 2.5 µM | 92 | 12.8 µM | 8.9 µM | 62.2 | C#CC(O)CCCCC (stereo not drawn) [1-Octyn-3-ol, 1-octyn-3-ol] | 
> 10 µM | > 6.3 µM | 90 | > 10 µM | > 2.5 µM | 85 | > 10 µM | > 7 µM | 89 | CC12CCC(CC1=O)C2(C)C (stereo not drawn) [Camphor, camphor] | 
> 10 µM | > 6.3 µM | 88 | > 10 µM | > 2.5 µM | 92 | > 10 µM | > 7 µM | 87 | CC(=O)c1ccccc1 [Acetophenone, acetophenone] | 
> 10 µM | > 6.3 µM | 92 | > 10 µM | > 2.5 µM | 95 | > 10 µM | > 7 µM | 94 | C=CC1(C)CCC(C(C)(C)O)O1 (stereo not drawn) [Linalool oxide, linalool oxide] | 
 |  | 87 |  |  | 84 |  |  | 66 | CC(=O)CCC=C(C)C [Sulcatone, 6-methyl-5-hepten-2-one] | IC50 (CquiOBP1): > 10 µM; Kd (CquiOBP1): > 6.3 µM; IC50 (CquiOBP2): > 10 µM; Kd (CquiOBP2): > 2.5 µM; IC50 (CquiOBP5): > 10 µM; Kd (CquiOBP5): > 7 µM
> 10 µM | > 6.3 µM | 84 | 7.4 µM | 1.9 µM | 40 | > 10 µM | > 7 µM | 93 | Cc1cc(C)cc(O)c1 [3,5-Dimethylphenol] | 
> 10 µM | > 6.3 µM | 88 | > 10 µM | > 2.5 µM | 88 | > 10 µM | > 7 µM | 93 | CC1CCC(O)CC1 (stereo not drawn) [4-Methylcyclohexanol] | 
> 10 µM | > 6.3 µM | 80 | 5.3 µM | 1.3 µM | 35 | 13.8 µM | 9.6 µM | 61 | CC1CCC(C(C)(C)O)C(O)C1 (stereo not drawn) [PMD, p-mentan-3,8-diol] | 
> 10 µM | > 6.3 µM | 69 | > 10 µM | > 2.5 µM | 93 | 11.6 µM | 8.1 µM | 59 | C=CC(O)CCCCC (stereo not drawn) [1-Octen-3-ol, 1-octen-3-ol] | 

Compound | IC50 (CquiOBP1; [1]) | Kd (CquiOBP1; [2]) | Int (fluorescence emission) (CquiOBP1; CquiOBP1) | IC50 (CquiOBP2; [3]) | Kd (CquiOBP2; [4]) | Int (fluorescence emission) (CquiOBP2; CquiOBP2) | IC50 (CquiOBP5; [5]) | Kd (CquiOBP5; [6]) | Int (fluorescence emission) (CquiOBP5; CquiOBP5) | also measured
C=CC(C)(O)CCC=C(C)C (stereo not drawn) [Linalool, linalool] | > 10 µM | > 6.3 µM | 91 | > 10 µM | > 2.5 µM | 97 | > 10 µM | > 7 µM | 86 | 
CC12CCC(C1)C(C)(C)C2=O (stereo not drawn) [Fenchone, fenchone] | > 10 µM | > 6.3 µM | 89 | > 10 µM | > 2.5 µM | 87 | > 10 µM | > 7 µM | 92 | 
COC(=O)c1ccccc1O [Methyl salicylate, methyl salicylate] | > 10 µM | > 6.3 µM | 87 | > 10 µM | > 2.5 µM | 72 | > 10 µM | > 7 µM | 89 | 
O=Cc1ccccc1 [Benzaldehyde, benzaldehyde] |  |  | 83 |  |  | 91 |  |  | 93 | IC50 (CquiOBP1): > 10 µM; Kd (CquiOBP1): > 6.3 µM; IC50 (CquiOBP2): > 10 µM; Kd (CquiOBP2): > 2.5 µM; IC50 (CquiOBP5): > 10 µM; Kd (CquiOBP5): > 7 µM
O=C1CCCCC1 [Cyclohexanone, cyclohexanone] | > 10 µM | > 6.3 µM | 79 | > 10 µM | > 2.5 µM | 86 | > 10 µM | > 7 µM | 82 | 
C=CCc1ccc(O)c(OC)c1 [Eugenol, eugenol] | > 10 µM | > 6.3 µM | 72 | > 10 µM | > 2.5 µM | 82 | 10.7 µM | 7.4 µM | 57.5 | 
COc1ccccc1OC [1,2-Dimethoxybenzene, 1,2-dimethoxybenzene] | > 10 µM | > 6.3 µM | 88 | > 10 µM | > 2.5 µM | 91 | > 10 µM | > 7 µM | 87 | 
Cc1ccc(O)cc1 [4-Methylphenol, 4-methylphenol] | > 10 µM | > 6.3 µM | 73 | > 10 µM | > 2.5 µM | 85 | > 10 µM | > 7 µM | 90 | 

From publication PMC4343023, “Selectivity of odorant-binding proteins from the southern house mosquito tested against physiologically relevant ligands” (Frontiers in Physiology, 2015)
